Where a name gives a salt, the structure may show the parent alone. Bounds are passed on as bounds.

The test deals with T1, Calcium Sensing Receptor (CaSR) (Homo sapiens, UniProt P41180).
T1 construct: expressed in transfected cells
T1 sequence (P41180 20-1078): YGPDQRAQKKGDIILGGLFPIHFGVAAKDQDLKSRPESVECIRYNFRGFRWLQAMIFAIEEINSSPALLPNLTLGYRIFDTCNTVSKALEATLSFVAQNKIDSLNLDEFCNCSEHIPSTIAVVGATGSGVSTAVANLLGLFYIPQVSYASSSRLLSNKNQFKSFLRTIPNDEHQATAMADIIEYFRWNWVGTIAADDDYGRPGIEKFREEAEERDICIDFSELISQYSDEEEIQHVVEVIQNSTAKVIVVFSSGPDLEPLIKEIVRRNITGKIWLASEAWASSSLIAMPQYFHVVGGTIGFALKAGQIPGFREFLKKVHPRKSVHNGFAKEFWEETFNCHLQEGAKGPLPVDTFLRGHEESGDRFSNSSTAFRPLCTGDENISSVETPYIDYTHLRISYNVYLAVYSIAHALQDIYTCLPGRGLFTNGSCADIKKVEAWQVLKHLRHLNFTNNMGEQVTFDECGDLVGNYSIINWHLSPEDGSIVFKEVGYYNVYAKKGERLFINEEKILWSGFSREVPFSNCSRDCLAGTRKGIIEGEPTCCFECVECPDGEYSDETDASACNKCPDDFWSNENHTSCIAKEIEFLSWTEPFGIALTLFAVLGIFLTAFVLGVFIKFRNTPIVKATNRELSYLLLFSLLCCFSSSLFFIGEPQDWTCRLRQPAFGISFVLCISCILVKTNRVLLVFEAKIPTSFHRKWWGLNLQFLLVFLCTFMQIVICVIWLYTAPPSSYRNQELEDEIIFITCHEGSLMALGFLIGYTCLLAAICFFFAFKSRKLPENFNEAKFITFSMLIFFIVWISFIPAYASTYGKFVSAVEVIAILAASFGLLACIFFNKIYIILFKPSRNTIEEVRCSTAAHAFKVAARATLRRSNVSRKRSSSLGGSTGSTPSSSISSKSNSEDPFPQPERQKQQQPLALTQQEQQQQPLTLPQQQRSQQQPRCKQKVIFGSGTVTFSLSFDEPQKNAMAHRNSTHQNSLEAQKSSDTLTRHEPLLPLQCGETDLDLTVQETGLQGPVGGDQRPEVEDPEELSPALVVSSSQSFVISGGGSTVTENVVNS
Kind of test: In-vitro assay of calcimimetics through modulation of Calcium Sensing Receptor (intracellular calcium, FLIPR). Type of test: cell-based. The conditions noted are these: HEK293 cells stably expressing hCaSR, increase in intracellular calcium, Fluo4NW dye, 0.3 mM CaCl2, 8-point assay, read-out: EC50 Range. On the procedure: In-vitro assay method of Calcimimetics through modulation of Calcium Sensing Receptor (CaSR):
The ability of the compounds to modulate Calcium sensing receptor is determined by measuring an increase in intracellular calcium [Ca^2+]i. Stably transfected HEK293 cells expressing hCaSR_pTriEx-3 hygro vector are developed. Cells are grown overnight on a 96-well plate to 80% confluency in Ham's F12 containing 20% FBS at 37° C., 5% CO2. Subsequently, cells are washed extensively with 20 mM HEPES buffer containing 126 mM […], 1 mM MgCl2 and 4 mM KCl to remove serum components that might interfere with the assay. Cells are loaded with calcium sensing Fluo4NW dye in HEPES base buffer containing 0.1% BSA and 1 mg/ml glucose for 30 minutes to measure changes in intracellular calcium. The activities of the compounds are measured in FLIPR using 0.3 mM CaCl2 in 20 mM HEPES base buffer. The effectiveness of the compound to modulate receptor activity is determined by calculating the EC50 responses for that compound in an 8-point assay and plotted using GraphPad Prism 5.
(In general: A change in cytosolic calcium serves as a functional read-out for many receptors and channels.)
In general, EC50 refers to the concentration giving half of the maximal effect. Regarding `Cc1ccc([C@@H]2C[C@H](CN[C@H](C)c3cccc4ccccc34)Oc3ccccc32)c(C)c1C(=O)O` [Example 67, 2,6-Dimethyl-3-((2R,4S)-2-((((R)-1-(naphthalen-1-yl)ethyl)amino)methyl)chroman-4-yl)benzoic acid hydrochloride], the EC50 was less than 20 nM. In the case of `Cc1cc(C(=O)O)cc([C@@H]2C[C@H](CN[C@H](C)c3cccc4ccccc34)Oc3ccccc32)c1` [Example 75, 3-Methyl-5-((2R,4S)-2((((R)-1-(naphthalen-1-yl)ethyl)amino)methyl)chroman-4-yl)benzoic acid hydrochloride] it was less than 20 nM; in that of `Cc1c(C(=O)O)ccc(F)c1[C@H]1C[C@H](CN[C@H](C)c2cccc3ccccc23)Oc2ccccc21` [Example 81a, 4-Fluoro-2-methyl-3-((2R,4S)-2-((((R)-1-(naphthalen-1-yl)ethyl)amino)methyl)chroman-4-yl)benzoic acid hydrochloride], 50 to 200 nM. In the case of `Cc1c(C(=O)O)ccc(F)c1[C@@H]1C[C@H](CN[C@H](C)c2cccc3ccccc23)Oc2ccccc21` [Example 81b, 4-Fluoro-2-methyl-3-((2R,4R)-2-((((R)-1-(naphthalen-1-yl)ethyl)amino)methyl)chroman-4-yl)benzoic acid hydrochloride] it was less than 20 nM; in that of `C[C@@H](NC[C@H]1C[C@@H](c2ccc(C(F)(F)F)c(C(=O)O)c2)c2ccccc2O1)c1cccc2ccccc12` [Example 83, 5-((2R,4S)-2-((((R)-1-(Naphthalen-1-yl)ethyl)amino)methyl)chroman-4-yl)-2-(trifluoromethyl)benzoic acid hydrochloride], less than 20 nM; in that of `Cc1ccc([C@@H]2C[C@H](CN[C@H](C)c3cccc4ccccc34)Oc3ccccc32)cc1C(=O)O` [Example 84b, 2-Methyl-5-((2R,4S)-2-((((R)-1-(naphthalen-1-yl)ethyl)amino)methyl)chroman-4-yl)benzoic acid hydrochloride], less than 20 nM. In the case of `COc1c(C(=O)O)cccc1[C@H]1C[C@H](CN[C@H](C)c2cccc3ccccc23)Oc2ccccc21` [Example 89a, 2-Methoxy-3-((2R,4S)-2-((((R)-1-(naphthalen-1-yl)ethyl)amino)methyl)chroman-4-yl)benzoic acid hydrochloride] it was 20 to 50 nM; in that of `COc1c(C(=O)O)cccc1[C@@H]1C[C@H](CN[C@H](C)c2cccc3ccccc23)Oc2ccccc21` [Example 89b, 2-Methoxy-3-((2R,4R)-2-((((R)-1-(naphthalen-1-yl)ethyl)amino)methyl)chroman-4-yl)benzoic acid hydrochloride], less than 20 nM. Turning to `Cc1ccc([C@@H]2C[C@H](CN[C@H](C)c3cccc4ccccc34)Oc3ccccc32)cc1OCC(=O)O` [Example 91, 2-(2-Methyl-5-((2R,4S)-2-((((R)-1-(naphthalen-1-yl)ethyl)amino)methyl)chroman-4-yl)phenoxy)acetic acid hydrochloride], the EC50 is less than 20 nM. In the case of `C[C@@H](NC[C@H]1C[C@H](c2ccc(F)c(OCC(=O)O)c2)c2ccccc2O1)c1cccc2ccccc12` [Example 93a, 2-(2-Fluoro-5-((2R,4R)-2-((((R)-1-(naphthalen-1-yl)ethyl)amino)methyl)chroman-4-yl)phenoxy)acetic acid hydrochloride], the half-maximal effective concentration (EC50) was less than 20 nM. For `C[C@@H](NC[C@H]1C[C@@H](c2ccc(F)c(OCC(=O)O)c2)c2ccccc2O1)c1cccc2ccccc12` [Example 93b, 2-(2-Fluoro-5-((2R,4S)-2-((((R)-1-(naphthalen-1-yl)ethyl)amino)methyl)chroman-4-yl)phenoxy)acetic acid hydrochloride] the value was less than 20 nM; for `C[C@@H](NC[C@H]1C[C@@H](c2cccc(OC(C)(C)C(=O)O)c2)c2ccccc2O1)c1cccc2ccccc12` [Example 97, 2-Methyl-2-(3-((2R,4S)-2-((((R)-1-(naphthalen-1-yl)ethyl)amino)methyl)chroman-4-yl)phenoxy)propanoic acid hydrochloride], 20 to 50 nM; for `C[C@@H](NC[C@H]1C[C@H](c2ccc(C(=O)O)cc2)c2ccccc2O1)c1cccc2ccccc12` [Example 98a, 4-((2R,4R)-2-((((R)-1-(Naphthalen-1-yl)ethyl)amino)methyl)chroman-4-yl)benzoic acid hydrochloride], 50 to 200 nM.

As for `C[C@@H](NC[C@H]1C[C@@H](c2ccc(C(=O)O)cc2)c2ccccc2O1)c1cccc2ccccc12` [Example 98b, 4-((2R,4S)-2-((((R)-1-(Naphthalen-1-yl)ethyl)amino)methyl)chroman-4-yl)benzoic acid hydrochloride], the EC50 lay within 50 to 200 nM.

Regarding `Cc1cc([C@@H]2C[C@H](CN[C@H](C)c3cccc4ccccc34)Oc3ccccc32)ccc1C(=O)O` [Example 99b, 2-Methyl-4-((2R,4S)-2-((((R)-1-(naphthalen-1-yl)ethyl)amino)methyl)chroman-4-yl)benzoic acid hydrochloride], the 50% effective concentration (EC50) was less than 20 nM.

`C[C@@H](NC[C@H]1C[C@@H](c2cc(F)c(C(=O)O)c(F)c2)c2ccccc2O1)c1cccc2ccccc12` [Example 101, 2,6-Difluoro-4-((2R,4S)-2-((((R)-1-(naphthalen-1-yl)ethyl)amino)methyl)chroman-4-yl)benzoic acid hydrochloride]: the EC50 was in the range of 20 to 50 nM. On to `COc1cc(C(=O)O)ccc1[C@@H]1C[C@H](CN[C@H](C)c2cccc3ccccc23)Oc2ccccc21` [Example 102b, 3-Methoxy-4-((2R,4S)-2-((((R)-1-(naphthalen-1-yl)ethyl)amino)methyl)chroman-4-yl)benzoic acid hydrochloride], for which the EC50 is less than 20 nM. For `C[C@@H](NC[C@H]1C[C@@H](c2ccc(C(=O)O)c(F)c2)c2ccccc2O1)c1cccc2ccccc12` [Example 104, 2-Fluoro-4-((2R,4S)-2-((((R)-1-(naphthalen-1-yl)ethyl)amino)methyl)chroman-4-yl)benzoic acid hydrochloride] the value was less than 20 nM; for `C[C@@H](NC[C@H]1C[C@@H](c2ccc(OCC(=O)O)cc2)c2ccccc2O1)c1cccc2ccccc12` [Example 105b, 2-(4-((2R,4S)-2-((((R)-1-(Naphthalen-1-yl)ethyl)amino)methyl)chroman-4-yl)phenoxy)acetic acid hydrochloride], less than 20 nM. For `C[C@@H](NC[C@H]1C[C@@H](c2ccc(CC(=O)O)cc2)c2ccccc2O1)c1cccc2ccccc12` [Example 107b, 2-(4-((2R,4S)-2-((((R)-1-(Naphthalen-1-yl)ethyl)amino)methyl)chroman-4-yl)phenyl)acetic acid hydrochloride] the value was 20 to 50 nM.

In the case of `C[C@@H](NC[C@H]1C[C@H](c2ccc(C(C)(C)C(=O)O)cc2)c2ccccc2O1)c1cccc2ccccc12` [Example 108a, 2-Methyl-2-(4-((2R,4R)-2-((((R)-1-(naphthalen-1-yl)ethyl)amino)methyl)chroman-4-yl)phenyl)propanoic acid hydrochloride], the EC50 lay in the range of 50 to 200 nM. As for `C[C@@H](NC[C@H]1C[C@@H](c2ccc(C(C)(C)C(=O)O)cc2)c2ccccc2O1)c1cccc2ccccc12` [Example 108b, 2-Methyl-2-(4-((2R,4S)-2-((((R)-1-(naphthalen-1-yl)ethyl)amino)methyl)chroman-4-yl)phenyl)propanoic acid hydrochloride], the 50% effective concentration (EC50) lay within 50 to 200 nM.
